SMILES strings stand for the structures. Where two headings read alike, the source gives them in different places.

This note sets out measurements from patent US11472826B2, “Acyclic antivirals” (priority 2016, dated 2022).

Test [1] relates to VSV-G pseudotyped HIV NL4-3. Kind of test: microbe, parasite or virus in culture. The conditions noted are these: Human immunodeficiency virus 1, NL43, 72 h. The format is cell-based.
A further test deals with HBV. Kind of test: microbe, parasite or virus in culture. The format is cell-based.
The target of test [2] is Recombinant full length HIV-1 Reverse Transcriptase (HIVrt) (Human immunodeficiency virus type 1 group M subtype B (isolate HXB2) (HIV-1), UniProt P04585). Briefly: Inhibition of HIV reverse transcriptase (HIVrt RNA-dependent DNA polymerization assay). In kind it is biochemical. The conditions noted are these: 1 nM HIVrt, c5′UTR RNA template, 30° C., 40 min; phosphono diphosphates tested. The method, then:
Recombinant full length HIV-1 Reverse Transcriptase (HIVrt) was purchased from Abcam, catalog #ab63979. The last 385 nucleotide region of the HCV anti-genome complementary to the 5′ untranslated region (c5′UTR) was synthesized using T7 RNA polymerase Megascript kit from Ambion (Cat #AM1333). A DNA oligo served as an internal initiation primer and was purchased from IDT. Unless otherwise specified, reaction samples consisted of 20 nM c5′UTR RNA, 100 nM DNA primer, and 1 nM HIVrt, mixed together in a buffer containing 50 mM Tris pH 7.5, 100 mM KCl, 4 mM dithiothreitol (DTT), and 12.5 mM MgCl2. Reactions were initiated at 30° C. by adding 0.1 μM adenosine triphosphate (dATP), 0.1 μM cytosine triphosphate (dCTP), 1 μM guanosine triphosphate (dGTP), and 0.32 μM ^3H-thymidine triphosphate (^3H-TTP), in a final volume of 50 μL. After 40-mins incubation, the reaction was terminated by adding 60 μl of chilled 20% (w/v) trichloroacetic acid with 500 μM ATP to precipitate nucleic acids. After incubation at 4° C. for 1 h, the sample underwent filtration on a multiscreen BV 1.2-μm 96-well plate (Millipore). 40 μL Microscint-20 (Perkin Elmer) was added to the well and the counts in the sample were determined by a Trilux Microbeta microplate scintillation reader (Wallac).
All data were analyzed with GraphPad Prism. The compound concentration at which the enzyme-catalyzed rate was reduced by 50% (IC50) was calculated by fitting the data to the equation Y=% Min+(% Max−% Min)/(1+X/IC50), where Y corresponds to the percent relative enzyme activity, % Min is the residual relative activity at saturating compound concentration, % Max is the relative maximum enzyme activity, and X corresponds to the compound concentration. The Ki was calculated using the Cheng-Prusoff equation assuming competitive inhibition relative to natural dNTP incorporation: Ki=IC50/(1+[dNTP]/Km), where [dNTP] is the concentration of natural dNTP and Km is the apparent Km for dNTP. The standard HIVrt RNA-dependent DNA polymerization (RdDp) assay was used to determine the IC50 values.

[3] abbreviates: Hepatitis B virus, HepG2.117 cells, 72 hours, HBV viral copy numbers in supernatant, read-out: EC50.
[4] abbreviates: Hepatitis B virus, HepG2.117, 72 h.

As to `Nc1ncnn2c(COCCP(=O)(O)O)ccc12` [Compound 1, (2-((4-aminopyrrolo[2,1-f][1,2,4]triazin-7-yl)methoxy)ethyl)phosphonic Acid], the EC50 is > 100000 nM in test [1] and < 1000 nM in the test on HBV (setting [3]). As to `C[C@H](Cc1ccc2c(N)ncnn12)OCP(=O)(O)O` [Compound 2, (R)-(((1-(4-aminopyrrolo[2,1-f][1,2,4]triazin-7-yl)propan-2-yl)oxy)methyl)phosphonic Acid], the EC50 in test [1] lay within 20000 to 100000 nM; with HBV (setting [3]), 10000 to 100000 nM.

For the compound `Nc1ncnn2c(CCOCP(=O)(O)O)ccc12` [Compound 3, ((2-(4-aminopyrrolo[2,1-f][1,2,4]triazin-7-yl)ethoxy)methyl)phosphonic Acid], the EC50 in test [1] was > 100000 nM. Still for that read-out and setting: the same measure for `C[C@H](Cc1nnc2c(N)ncnn12)OCP(=O)(O)O` [Compound 4, (R)-(((1-(8-amino-[1,2,4]triazolo[3,4-f][1,2,4]triazin-3-yl)propan-2-yl)oxy)methyl)phosphonic Acid]: > 100000 nM; for `C[C@H](Cc1cnc2c(N)ncnn12)OCP(=O)(O)O` [Compound 5, (R)-(((1-(4-aminoimidazo[2,1-f][1,2,4]triazin-7-yl)propan-2-yl)oxy)methyl)phosphonic Acid]: < 20000 nM. `C[C@H](Cc1ncc2c(N)ncnn12)OCP(=O)(O)O` [Compound 6, (R)-(((1-(4-aminoimidazo[5,1-f][1,2,4]triazin-7-yl)propan-2-yl)oxy)methyl)phosphonic Acid]: the EC50 in test [1] is > 100000 nM. On the same count and under the same terms, as for `CC(Cc1cnn2c(N)ncnc12)OCP(=O)(O)O` (stereo not shown) [Compound 7, (1-(4-aminopyrazolo[1,5-a][1,3,5]triazin-8-yl)propan-2-yloxy)methylphosphonic Acid], the figure is < 20000 nM.

As to `CC(Cc1ccc2c(N)nc(F)nn12)OCP(=O)(O)O` (stereo not shown) [Compound 8, (((1-(4-amino-2-fluoropyrrolo[2,1-f][1,2,4]triazin-7-yl)propan-2-yl)oxy)methyl)phosphonic Acid], the EC50 in test [1] was 20000 to 100000 nM; with HBV (setting [3]), 10000 to 100000 nM. In the case of `CC(C)OC(=O)OCOP(=O)(COCCc1ccc2c(N)ncnn12)OCOC(=O)OC(C)C` [Compound 15], the EC50 in the test on HBV (setting [3]) lay within 1000 to 10000 nM. Still for that read-out and setting: the same measure for `CC(C)OC(=O)OCOP(=O)(COC(CF)Cc1cnn2c(N)ncnc12)OCOC(=O)OC(C)C` (stereo not shown) [Compound 16]: < 1000 nM; for `CC(C)OC(=O)OCOP(=O)(COC(C)Cc1ccc2c(N)nc(N)nn12)OCOC(=O)OC(C)C` (stereo not shown) [Compound 18]: 1000 to 10000 nM. Turning to `Nc1ncnn2c(COCCP(=O)(O)OP(=O)(O)OP(=O)(O)O)ccc12` [Compound 19], the IC50 in test [2] is ≥ 250 nM.

Consider `Nc1ncnn2c(CCOCP(=O)(O)OP(=O)(O)OP(=O)(O)O)ccc12` [Compound 20], for which the IC50 in test [2] was < 50 nM. With `C[C@H](Cc1ccc2c(N)ncnn12)OCP(=O)(O)OP(=O)(O)OP(=O)(O)O` [Compound 21], the IC50 in test [2] is < 50 nM. Still for that read-out and setting: as for `C[C@H](Cc1nnc2c(N)ncnn12)OCP(=O)(O)OP(=O)(O)OP(=O)(O)O` [Compound 22], the figure is ≥ 250 nM. Same read-out and setting: as for `C[C@H](Cc1cnc2c(N)ncnn12)OCP(=O)(O)OP(=O)(O)OP(=O)(O)O` [Compound 23], the figure is < 50 nM; as for `C[C@H](Cc1ncc2c(N)ncnn12)OCP(=O)(O)OP(=O)(O)OP(=O)(O)O` [Compound 24], ≥ 250 nM; as for `C[C@H](Cc1cnn2c(N)ncnc12)OCP(=O)(O)OP(=O)(O)OP(=O)(O)O` [Compound 25], 50 to 250 nM. For `C[C@@H](Cc1cnn2c(N)ncnc12)OCP(=O)(O)OP(=O)(O)OP(=O)(O)O` [Compound 26], in test [2], the IC50 is < 50 nM. The same measure, in the same setting: the same measure for `CC(Cc1ccc2c(N)nc(F)nn12)OCP(=O)(O)OP(=O)(O)OP(=O)(O)O` (stereo not shown) [Compound 27]: < 50 nM. The same measure, in the same setting: as for `CC(Cc1ccc2c(N)nc(N)nn12)OCP(=O)(O)OP(=O)(O)OP(=O)(O)O` (stereo not shown) [Compound 28], the figure is ≥ 250 nM. In the case of `C[C@H](Cc1cnn2c(N)ncnc12)OCP(=O)(O)O` [Compound 29], the EC50 in test [1] was in the range of 20000 to 100000 nM.

For `C[C@@H](Cc1cnn2c(N)ncnc12)OCP(=O)(O)O` [Compound 30], in test [1], the EC50 is < 20000 nM. For the compound `CC(Cc1cnc2c(=O)[nH]c(N)nn12)OCP(=O)(O)O` (stereo not shown) [Compound 48, (((1-(2-amino-4-oxo-3,4-dihydroimidazo[2,1-f][1,2,4]triazin-7-yl)propan-2-yl)oxy)methyl)phosphonic Acid], the EC50 in the test on HBV (setting [3]) is < 1000 nM.

With `CC(C)OC(=O)OCOP(=O)(COC(C)Cc1ccc2c(=O)[nH]c(N)nn12)OCOC(=O)OC(C)C` (stereo not shown) [Compound 51], in the test on HBV (setting [3]), the concentration for a half-maximal effect (EC50) was < 1000 nM. Take `CC(C)OC(=O)[C@H](C)NP(=O)(CO[C@H](C)Cc1cnn2c(N)ncnc12)Oc1ccccc1` (stereo partly shown) [Compound 52]: in the test with HBV (setting [4]), the EC50 was < 1000 nM. Still for that read-out and setting: the same measure for `CC(C)OC(=O)[C@H](C)NP(=O)(CO[C@H](C)Cc1cnc2c(N)ncnn12)Oc1ccccc1` (stereo partly shown) [Compound 53]: < 1000 nM. With `CC(Cc1ccc2c(=O)[nH]cnn12)OCP(=O)(O)OP(=O)(O)OP(=O)(O)O` (stereo not shown) [Compound 55], in test [2], the IC50 was ≥ 250 nM. In the case of `CC(Cc1ccc2c(=O)[nH]c(N)nn12)OCP(=O)(O)OP(=O)(O)OP(=O)(O)O` (stereo not shown) [Compound 56], in test [2], the IC50 was < 50 nM. Still for that read-out and setting: as for `CC(Cc1cnc2c(=O)[nH]c(N)nn12)OCP(=O)(O)OP(=O)(O)OP(=O)(O)O` (stereo not shown) [Compound 57], the figure is 50 to 250 nM; as for `Nc1ncnc2c(C[C@@H](CF)OCP(=O)(O)OP(=O)(O)OP(=O)(O)O)cnn12` [Compound 58], < 50 nM. Consider `Nc1ncnc2c(C[C@H](CF)OCP(=O)(O)OP(=O)(O)OP(=O)(O)O)cnn12` [Compound 59], for which, in test [2], the IC50 is < 50 nM. On the same count and under the same terms, as for `Nc1ncnc2c(CC3(OCP(=O)(O)OP(=O)(O)OP(=O)(O)O)CC3)cnn12` [Compound 60], the figure is 50 to 250 nM.

Take `CC(C)OC(=O)[C@H](C)NP(=O)(COC(C)Cc1cnc2c(=O)[nH]c(N)nn12)Oc1ccccc1` (stereo partly shown) [Compound 61]: the concentration giving a half-maximal response (EC50) in the test on HBV (setting [4]) is < 1000 nM. As for `CC(C)OC(=O)[C@H](C)NP(=O)(CO[C@@H](CF)Cc1cnn2c(N)ncnc12)Oc1ccccc1` (stereo partly shown) [Compound 62], the EC50 in the test with HBV (setting [4]) was < 1000 nM. For the compound `CC(C)OC(=O)[C@H](C)NP(=O)(CO[C@H](CF)Cc1cnn2c(N)ncnc12)Oc1ccccc1` (stereo partly shown) [Compound 63], the EC50 in the test on HBV (setting [4]) was < 1000 nM. With `Nc1ncnc2c(CC3(OCP(=O)(O)O)CC3)cnn12` [Compound 64, ((1-((4-aminopyrazolo[1,5-a][1,3,5]triazin-8-yl)methyl)cyclopropoxy)methyl) phosphonic Acid], in the test on HBV (setting [3]), the EC50 lay within 10000 to 100000 nM. As for `Nc1ncnc2c(C[C@H](OCP(=O)(O)O)C(F)F)cnn12` [Compound 65, (S) (((3-(4-aminoprazolo[1,5-a][1,3,5]triazin-8-yl)-1,1-difluoropropan-2-yl)oxy)methyl)phosphonic Acid], the EC50 with HBV (HepG2.117 cells, 72 hours, HBV viral copy numbers in supernatant, read-out: EC50) fell in the range of 1000 to 10000 nM. As for `Nc1ncnc2c(C[C@@H](OCP(=O)(O)O)C(F)F)cnn12` [Compound 66, (R)-(((3-(4-aminopyrazolo[1,5-a][1,3,5]triazin-8-yl)-1,1-difluoropropan-2-yl)oxy)methyl)phosphonic Acid], in the test with HBV (setting [3]), the EC50 lay in the range of 1000 to 10000 nM. As to `Nc1ncnn2c(C[C@@H](CF)OCP(=O)(O)O)cnc12` [Compound 67, (S)-(((1-(4-aminoimidazo[2,1-f][1,2,4]triazin-7-yl)-3-fluoropropan-2-yl)oxy)methyl) phosphonic Acid], the EC50 in the test with HBV (setting [3]) lay within 10000 to 100000 nM.

On to `Nc1ncnn2c(C[C@H](CF)OCP(=O)(O)O)cnc12` [Compound 68, (R)-(((1-(4-aminoimidazo[2,1-f][1,2,4]triazin-7-yl)-3-fluoropropan-2-yl)oxy)methyl)phosphonic Acid], for which the EC50 in the test with HBV (setting [3]) is < 1000 nM. For the compound `Nc1ncnc2c(C[C@H](OCP(=O)(O)OP(=O)(O)OP(=O)(O)O)C(F)F)cnn12` [Compound 79], the IC50 in test [2] is ≥ 250 nM. Same read-out and setting: the same measure for `Nc1ncnn2c(C[C@@H](CF)OCP(=O)(O)OP(=O)(O)OP(=O)(O)O)cnc12` [Compound 80]: 50 to 250 nM; for `Nc1ncnc2c(C[C@@H](OCP(=O)(O)OP(=O)(O)OP(=O)(O)O)C(F)F)cnn12` [Compound 81]: 50 to 250 nM; for `Nc1ncnn2c(C[C@H](CF)OCP(=O)(O)OP(=O)(O)OP(=O)(O)O)cnc12` [Compound 82]: 50 to 250 nM. Still for that read-out and setting: the same measure for `CC(C)(Cc1cnn2c(=O)[nH]c(N)nc12)OCP(=O)(O)OP(=O)(O)OP(=O)(O)O` [Compound 83]: ≥ 250 nM.
